Assay results taken from ChEMBL document CHEMBL1146577, “Sulfemodin 8-O-beta-D-glucoside, a new sulfated anthraquinone glycoside, and antioxidant phenolic compounds from Rheum emodi” (J Nat Prod, 2003).
Values after ≈ are worked out from the molar mass of the structure shown.

Test system: Radical scavenging activity
Assay: Antioxidant activity assessed as DPPH radical scavenging activity
Type: functional

Which IC50 does the source give for `COc1cc(O[C@@H]2O[C@H](CO)[C@@H](O)[C@H](O)[C@H]2O)c2c(O)c(C(C)=O)c(C)cc2c1` here?
The IC50 was 18.5 µg/mL (≈ 45.3 µM).

Which IC50 does the source give for `COc1cc(O)c2c(c1)C(=O)c1cc(C)cc(O[C@@H]3O[C@H](CO)[C@@H](O)[C@H](O)[C@H]3O)c1C2=O` here?
The IC50 was > 100 µg/mL.

For `Cc1cc(O[C@@H]2O[C@H](CO)[C@@H](O)[C@H](O)[C@H]2O)c2c(c1)C(=O)c1cc(O)cc(O)c1C2=O`, which IC50 is on record?
The IC50 was > 100 µg/mL.

`Oc1cc(O)c2c(c1)O[C@H](c1ccc(O)c(O)c1)[C@H](O)C2` [(-)-EPICATECHIN] was tested. Which IC50 did it give?
The IC50 was 1.7 µg/mL (≈ 5.86 µM).

How did the IC50 turn out when `O=C1O[C@H]([C@@H](O)CO)C(O)=C1O` [ASCORBIC ACID] was run?
Its IC50 is 3.9 µg/mL (≈ 22.1 µM).

For `COc1cc(O)cc2c1C(=O)C(O)(Cc1ccc(O)cc1)O2` (stereo unspecified) [CARPUSIN], which IC50 is on record?
The IC50 was 4.7 µg/mL (≈ 15.5 µM).

For `Cc1cc(O)c2c(c1)C(=O)c1cccc(O)c1C2=O` [CHRYSOPHANOL], which IC50 is on record?
The IC50 was > 100 µg/mL.

With `Cc1cc(O)c2c(c1)C(=O)c1cc(O)cc(O)c1C2=O` [EMODIN] as the molecule, how does the IC50 read?
Its IC50 is > 100 µg/mL.

How did the IC50 turn out when `O=C1c2c(O)cc(O)cc2OC1(O)Cc1ccc(O)cc1` (stereo unspecified) [MAESOPSIN] was run?
Its IC50 is 5.3 µg/mL (≈ 18.4 µM).

How did the IC50 turn out when `COc1cc(O)c2c(c1)C(=O)c1cc(C)cc(O)c1C2=O` [PHYSCION] was run?
The IC50 was > 100 µg/mL.

With `Cc1cc(O)c2c(c1)C(=O)c1cccc(O[C@@H]3O[C@H](CO)[C@@H](O)[C@H](O)[C@H]3O)c1C2=O` [PULMATIN] as the molecule, how does the IC50 read?
The IC50 was > 100 µg/mL.
